Drawing on a melting point compilation (Tetko et al.; mined from patent text by program, amines drawn as free bases though some values may be those of a salt), this text covers melting point for 87 compounds.

Bounds are passed on as bounds.

The melting point is the temperature, or range, at which the solid turns liquid. On to `CSCC(C)NC(=O)c1c(I)cccc1C(=O)Nc1ccc(C2(C(F)(F)F)CC(c3ccc(Cl)cc3)=NO2)cc1C` (configuration not stated), for which the melting point fell in the range of 116 to 120 °C.

`O=C(Nc1ccc(-n2nc(C(F)(F)F)cc2C(F)(F)F)cc1)C1CC1c1ccccc1` (configuration not stated) had a melting point of 176 to 178 °C.

`C#CCN1C(=O)COc2cc(-c3ncc(C(F)(F)F)c(C)c3Cl)c(F)cc21` showed a melting point of 156 to 157 °C.

As to `O=C(O)c1ccsc1C(F)F`, the melting point was 127 to 128 °C.

The compound `CC1CC2=CC(=O)CCC2C2C(Cl)CC3(C)C(=O)CCC3C12` (configuration not stated) gave a melting point of 215 °C.

As for `COCC(C)Nc1cc2c(=O)n(NS(C)(=O)=O)c(=O)[nH]c2cc1[N+](=O)[O-]` (configuration not stated), the melting point fell in the range of 103 to 111 °C.

For `Cc1cccc(C)c1N(C(=O)CCl)C1=CCCCC1`, the melting point stood at 78 °C.

For `CC(C)(c1ccc(Oc2ccc(N)cc2)cc1)c1cccc(C(C)(C)c2ccc(Oc3ccc(N)cc3)cc2)c1`, the melting point amounted to 180 °C.

Regarding `O=C(/C=C/c1cccc(Cl)c1)NC1CC1`, the melting point was 112 to 113 °C.

Consider `CC1(C)NC(=O)N(CC#CI)C1=O`, for which the melting point lay in the range of 118 to 126 °C.

`O=C1CN(C(c2ccccc2)c2ccccc2)N1` came in with a melting point of 160 to 163 °C.

As for `CCOC(=O)c1cn(-c2nc(N)c(F)cc2F)c2c(F)c(F)c(F)c(N)c2c1=O`, the melting point fell in the range of 225 to 230 °C.

As to `Cc1nn(CC(F)COCc2ccccc2)c(-c2ccc(F)cc2)c1-c1ccc2c(c1)NC(=O)CO2` (configuration not stated), the melting point was in the range of 138 to 140 °C.

Compound `OC(c1ccccc1)c1ccc2cccnc2c1` (configuration not stated) gave a melting point of 118 °C.

For the compound `CC(C)CN1C(=O)[C@@H](CC(=O)O)N=C(c2ccccc2Cl)c2cc(Cl)ccc21`, the melting point is 175 to 178 °C.

Take `O=C1N[C@@H](Cc2ccccc2)[C@@H](COS(=O)(=O)c2ccc([N+](=O)[O-])cc2)O1`: the melting point lay in the range of 148 to 150 °C.

Regarding `CON=C(C)CN(C(=O)c1ccco1)c1c(C)cccc1C`, the melting point was in the range of 108 to 109 °C.

Take `Cc1noc2cc3c(cc12)C1(CO3)C(=O)N(Cc2ncccc2C(F)(F)F)c2ccccc21` (configuration not stated): the melting point is 221 to 222 °C.

`CCOC(=O)c1cn(C)c2cc(C(C)(C)C)ccc2c1=O` yielded a melting point of 138 to 140 °C.

Take `Cc1cc(-c2nc3cccnn3c2-c2ccnc(NC(=O)CCS(C)(=O)=O)c2)ccc1F`: the melting point was in the range of 227 to 228 °C.

`CCOc1ccc(-c2nc(-c3cccc(N4CCCC4C(=O)O)n3)cs2)cc1OCC` (configuration not stated) yielded a melting point of 170 to 171 °C.

In the case of `Cc1ccc2cc(NC(=O)c3cccc(OCc4ccc(N)nc4)c3)ccc2n1`, the melting point is 189 to 192 °C.

Consider `FC(F)(F)Oc1ccc(Nc2nc(-c3ccccc3)cc(N3CCOCC3)n2)cc1`, for which the melting point lay in the range of 260 to 262 °C.

Take `COC[C@H]1CCCN1C(=O)c1cc(-c2ccccc2)c(=O)n2ccc3ccc(Cl)cc3c12`: the melting point lay within 137 to 140 °C.

Compound `CCCCCCCCCCCCCCCCCCOC(=O)Nc1ccc(NC(=O)NS(=O)(=O)c2ccc(OC)cc2)cc1` showed a melting point of 190 °C.

On to `NC1(CCC(O)(P(=O)(O)O)P(=O)(O)O)CCCCC1`, for which the melting point was 143 °C.

For the compound `COc1cccc2c1C(CN1CC=C(c3c[nH]c4cc(Cl)ccc34)CC1)CC2` (configuration not stated), the melting point fell in the range of 177 to 178 °C.

For `O=C1Nc2cccc(-c3cccc(Cl)c3)c2/C1=C/c1ccc[nH]1`, the melting point is 165 to 167 °C.

In turn, `Cc1c(SCCCSCC2CN(C)C(=O)O2)ccnc1CNc1cnc2ccccc2c1` (configuration not stated) showed a melting point of 98 to 100 °C.

`CCc1noc(-c2cc3c(-c4cccs4)nccc3[nH]c2=O)n1` gave a melting point of 265 to 268 °C.

In the case of `OCc1cnc(Cl)c(Cl)c1`, the melting point is 72 to 75 °C.

For `CC(=O)Nc1nc2c(Oc3cc(-c4ccc(C(F)(F)F)cc4I)ncn3)cccc2s1`, the melting point was 242 to 243 °C.

On to `Cc1ccsc1C=Nc1cc([N+](=O)[O-])ccc1O`, for which the melting point was in the range of 169 to 171 °C.

For `CN(C(=O)COc1cc(-c2ccccc2)nc2ccccc12)C1CCC1`, the melting point stood at 110 °C.

Turning to `N#Cc1ncn2c(C(F)(F)F)cc(-c3cccnc3)nc12`, the melting point was determined as 222 °C.

With `NCCNC(c1ccccc1)c1ccccc1`, the melting point was 23 to 24 °C.

In the case of `O=C(c1ccc(C(F)(F)F)cc1S(=O)c1ccc(Cl)cc1)c1cnoc1C1CC1` (configuration not stated), the melting point was 151 °C.

`O=C(O)Cc1c[nH]c2nc(Nc3ccccc3)nn2c1=O` registered a melting point of 279 to 281 °C.

`CC(C)(C)OC(=O)N1CCC(C(=O)c2nc3ccccc3s2)CC1` came in with a melting point of 94 to 95 °C.

With `Cn1ncc2c1-c1c(Sc3ccccc3)sc(C(N)=O)c1CC2`, the melting point fell in the range of 140 to 141 °C.

Take `COc1ccc(Cl)cc1NC(=O)[C@H]1[C@H](c2ccc(S(N)(=O)=O)cc2)C12CCCCC2` (relative stereo): the melting point is 118 to 121 °C.

Turning to `FC(F)(F)CNC(=S)NCC(F)(F)F`, the melting point was in the range of 152 to 153 °C.

`CCCCn1ccc(N2CCC(c3ccc(C(C)(C)O)cc3F)CC2)c(Cl)c1=O` yielded a melting point of 150 °C.

As to `CCOC(=O)[C@H](Cc1ccc(O)cc1)NC(=O)OC(C)(C)C`, the melting point was in the range of 87 to 88 °C.

As to `O=C(Cc1ncc[nH]1)c1ccc2ccccc2c1`, the melting point was in the range of 125 to 126 °C.

`CC(=O)OC1CSC(Oc2cccnc2)C(OC(C)=O)C1OC(C)=O` (configuration not stated) came in with a melting point of 147 °C.

The compound `Cc1cccc(CC(=O)N2C[C@@H]3C(=O)CCC(c4ccccc4)(c4ccccc4)[C@@H]3C2)c1` (racemic) yielded a melting point of 184 °C.

Take `Cn1c(C(F)(F)F)cc(=O)n(-c2cc(OCC(=O)c3ccccc3)c(Cl)cc2F)c1=O`: the melting point is 152 to 153 °C.

`CCOc1ccnc(F)c1NC(=O)OC(C)(C)C` had a melting point of 130 to 131 °C.

The compound `CNC(=O)/C(=N/OC)c1ccccc1COc1cccc(OC)n1` displayed a melting point of 81 to 82 °C.

In turn, `COC(=O)c1c(C(=O)OC)c(-c2ccc(Cl)cc2)n2c1Cc1ccccc1C2` had a melting point of 164 to 166 °C.

Consider `O=S1(=O)c2ccc(F)cc2Oc2cc(OCC(F)(F)F)ccc21`, for which the melting point is 160 to 161 °C.

For the compound `CN1C(C)(C)CC(N(CCCCCCN(C2CC(C)(C)N(C)C(C)(C)C2)P2OCC(C)(C)CO2)P2OCC(C)(C)CO2)CC1(C)C`, the melting point was determined as 103 °C.

For the compound `CC(=O)Nc1cccc(Nc2ncnc3[nH]cc(C(=O)c4cccc5ccccc45)c23)c1`, the melting point was > 300 °C.

Regarding `CCn1cc(CC(=O)O)c(OCCCc2cn(-c3ccc(C(F)(F)F)cn3)nc2C(C)C)n1`, the melting point fell in the range of 99 to 100 °C.

For `O=C1CCC(N2Cc3c(OCc4cc(Cl)cc(Cl)c4)cccc3C2=O)C(=O)N1` (configuration not stated), the melting point lay within 271 to 273 °C.

Compound `N#CCN(C1CC1)S(=O)(=O)Cc1cccc(C(F)(F)F)c1` came in with a melting point of 70.1 to 71 °C.

In turn, `CC(C)[C@H](CC(N)=O)NC(=O)OCc1ccccc1` displayed a melting point of 171 to 172 °C.

Regarding `CCOCn1c(Br)c(Br)c(C#N)c1C(F)(F)F`, the melting point was 65 to 67 °C.

Compound `CN(C)c1cc(-n2nc(N(C)C)n(C)c2=O)c(F)cc1C#N` showed a melting point of 109 to 110 °C.

In the case of `Clc1cc2c(cc1Cn1ccnc1-c1ccccc1)OCO2`, the melting point was 163 °C.

Compound `CCOc1nc2cc(N)ccc2c(=O)o1` came in with a melting point of 185 to 187 °C.

In turn, `CC[C@H](C)[C@H](NC(=O)[C@H](Cc1ccc(O)cc1)NC(=O)OC(C)(C)C)C(=O)NCCCBr` gave a melting point of 96 to 100 °C.

As to `COc1ccc(CC(=O)O)cc1C12CC3CC(CC(C3)C1)C2`, the melting point was 78 to 79 °C.

`CCCCCCCCNc1c(Nc2ccc(CC(C)NC[C@H](O)COc3ccccc3)cc2)c(=O)c1=O` (some centres not stated) showed a melting point of 146 to 155 °C.

The compound `CCSc1nc(-c2ccc(OC)cc2)c(-c2ccc(OC)cc2)s1` came in with a melting point of 73 to 75 °C.

Turning to `CCOC(=O)C1CCc2cc(OC)ccc2C1=O` (configuration not stated), the melting point lay within 58 to 60 °C.

Consider `CCC(CC)OC(=O)c1ccc(C(=O)NS(=O)(=O)c2ccccc2)cn1`, for which the melting point lay in the range of 182 to 183 °C.

In turn, `CC(=O)SCCC(=O)N1[C@@H](c2ccccc2O)SC[C@H]1C(=O)N[C@@H](CC(C)C)C(=O)O` came in with a melting point of 78 to 84 °C.

In turn, `O=P1(c2cccc(F)c2)c2ccccc2CN1c1ccccc1` (configuration not stated) returned a melting point of 209 to 210 °C.

Consider `CC(C(=O)O)c1ccc2nc(-c3ccccc3)oc2c1` (configuration not stated), for which the melting point turned out to be 132 °C.

Regarding `COC(=O)C(C)(C)Cc1c(SC(C)(C)C)c2cc(OCc3cnccn3)ccc2n1Cc1ccc(Cl)cc1`, the melting point is 141 to 142 °C.

The compound `Nc1ccn2nc(N3CCCC3)nc2c1` had a melting point of 221 to 225 °C.

`COC(=O)C=C1NCC(C)OC1=O` (configuration not stated) had a melting point of 98 to 101 °C.

In the case of `Cc1ccc(S(=O)(=O)c2ccccc2[N+](=O)[O-])cc1`, the melting point was in the range of 155 to 156 °C.

Compound `Cc1cc(N2CCCCCC2)c2ccc(NCc3ccc(C(F)(F)F)cc3)cc2n1` registered a melting point of 90 to 93 °C.

`Cc1nc2ccc(C(=O)NS(=O)(=O)c3ccccc3)nc2n1Cc1ccc(COc2ccccc2)cc1Cl` returned a melting point of 203 to 205 °C.

For the compound `Cn1cnc(Cc2cccc3c2OC(C)(C)OC3)c1`, the melting point is 67 to 72 °C.

For `COC(=O)c1ccc(C2C(C#N)=C(CC(C)C)NC(C)=C2C(=O)OC(C)(C)C)cc1` (configuration not stated), the melting point lay in the range of 191 to 193 °C.

The compound `N#Cc1ccc2c(c1)CCN(C1CCC3(CC1)OCCO3)C2` came in with a melting point of 127 °C.

`CCSC1CCC2C3CCC4=CC(=O)C=CC4(C)C3(F)C(O)CC12C` (configuration not stated) showed a melting point of 196 to 197 °C.

The compound `COc1ccc(N2C(=O)N(c3cccc(C#N)c3)c3nc(Nc4cccc(CCOC(C)=O)c4)ncc3C2C)cc1` (configuration not stated) displayed a melting point of 170 to 172 °C.

`COC(=O)CS(=O)(=O)CCCCCCn1nc(-c2ccccc2)c(-c2ccccc2)c1-c1ccccc1` had a melting point of 92.5 to 94.5 °C.

With `C=CCOc1cc(-n2nc(C)c(C)c2C)c(F)cc1Cl`, the melting point was in the range of 97 to 99 °C.

In turn, `COC(OC)C(=O)C=Cc1ccc(-c2cccs2)s1` had a melting point of 74 °C.

`CC(C)(C)c1cc(O)n[nH]1` showed a melting point of 205 to 206 °C.

`CCCCN1C(=O)CN2C(=O)CN(c3ccc(C(C)C)cc3Br)c3nc(C)nc1c32` registered a melting point of 207 to 208 °C.
